Assay results: patent US20060073541A1, “Lipophilic dyes and their application for detection of myelin” (priority 2004, published 2006)

How the values were obtained:
myelin [1] = assay: Myelin staining in combination with NeuroTrace Nissl stains and DAPI on mouse brain cryosections; conditions: 500 nM dye, NeuroTrace Nissl stain 1:300, DAPI
Protocol: (§1) A 16 μm mouse brain cryosection, cross section through diencephalon, was rehydrated for 20 minutes in PBT (0.5 M phosphate-buffered saline containing 0.2% Triton X-100 and 0.2% BSA). The three dyes were mixed into the final stain solution (in PBS), such that there was a concentration of 500 nM of Compound 1, 1:300 dilution of NeuroTrace Red Nissl Stain, and 0.1 μg/ml DAPI. Sections were labeled in this combination for 20 minutes, then washed well in PBT prior to mounting in Prolong antifade mounting medium (Molecular Probes, Inc.). Images were collected on a Nikon E800 epifluorescence upright microscope using a Princeton MicroMax cooled CCD digital camera, MetaMorph acquisition software, and Adobe Photoshop image analysis software.
as §1, with “(0.5M” for “(0.5 M”, “nM” for “nM of”, “2,” for “1,”
12 μm thick mouse brain cryosections, either cross-sectioned through the mesencephalon or sagittal sections, were rehydrated and permeabilized for 20 minutes in PBT (PBS with 0.2% Triton X-100 and 0.2% BSA) then labeled 30 minutes with 500 nM Compound 4 in PBS. Sections were washed 3×10 minutes with PBT then labeled 20 minutes with NeuroTrace Green Nissl Stain (diluted 1:300 from stock). Sections were washed 3×5 minutes in PBS, labeled 1.5 minutes with 0.2 μg/mL DAPI, washed 3×5 minutes in PBS again, and mounted in Prolong Gold antifade mounting medium. Samples were compared to sections labeled with Compound 1 and Compound 2 as controls. Images were collected on a Nikon E800 epifluorescence upright microscope using a Princeton MicroMax cooled CCD digital camera, MetaMorph acquisition software, and Adobe Photoshop image analysis software.

myelin [2] = assay: Myelin staining of mouse brain cryosections, label pattern comparison; conditions: for labeling of myelin (selectivity): 1 μM or 500 nM in PBS; for myelin label pattern / non-specific background labeling / single axon labeling: 16 μm mouse brain cryosections, dyes 500 nM 20 minutes; for myelin label pattern: sagittal and cross sections, anti-MBP 5 μg/ml overnight; for emission wavelength (Em) / excitation wavelength (Ex): dye on labeled mouse brain cryosections
Protocol: In an exemplary embodiment, the present method stains and detects myelin in brain tissue sections that have been immobilized on a glass slide. In this instance a protocol for labeling brain cryosections comprises: • 1. Rehydrate and/or Permeabilize. Bring tissue sections on slides to room temperature, then rehydrate in either PBS (phosphate-buffered saline, 0.05M, pH 7.4) or PBT (PBS+0.2% Triton X-100) for at least 20 minutes. Permeabilization with Triton X-100 is not necessary for labeling using the present lipophilic dyes, but is likely necessary for any other counterstains or antibodies to be used. • 2. Prepare Label Solution. Prepare the labeling solution by diluting the stock solution 300-fold with PBS to make a final recommended concentration of 500 nM dye. • 3. Label Step. Flood the section with labeling solution and stain for 20 minutes at room temperature. • 4. Wash. When labeling is complete, remove solution, rinse in PBS, and wash 3×10 minutes with PBS. • 5. Counterstaining and Mounting. At this point tissues can be counterstained as necessary, or mounted with an aqueous antifade mounting medium such as ProLong or ProLong Gold reagent.
Use of this antibody allows for specific labeling with which to compare the present lipophilic dyes and chromogenic method label patterns. […] Tissue was sectioned on a cryostat and mounted on Plus slides and stored at −80° C. Upon use, tissue sections were brought to room temperature and rehydrated in PBT (0.5 M phosphate-buffered saline containing 0.2% Triton X-100 and 0.2% BSA) for 30 minutes. Sections were blocked for 1 hour in 5% normal goat serum/3% BSA/PBT, then labeled overnight at 4° using 5 μg/ml rat anti-MBP primary antibody from Chemicon (MAB386). After washing in PBT, tissues were washed in Image-iT FX signal enhancer (136933, Molecular Probes, Inc., Eugene, Oreg.) for 30 minutes, then washed again in PBT. Sections were incubated in Alexa Fluor 488 goat anti-rat secondary antibody (A11006, Molecular Probes, Inc.) for 2 hours, washed in PBT, and mounted in ProLong antifade solution (P7481, Molecular Probes, Inc.). Images were collected on a Nikon E800 epifluorescence upright microscope using a Princeton MicroMax cooled CCD digital camera, MetaMorph acquisition software, and Adobe Photoshop image analysis software (Ex 495/Em 519, FITC Filter Set).
Other than antibody labeling techniques, myelin labeling is traditionally performed using long and complicated chromogenic (non-fluorescent) dye protocols. One of the most common is the Loyez Technique. A more recent, and more specific method is Schmued's Gold Chloride Technique. These two methods were used for comparison to the present dyes. • I. Schmued's Gold Chloride Technique. Based on a method by Laurence C. Schmued [1990. A rapid, sensitive histochemical stain for myelin in frozen brain sections. J. Histochem Cytochem. 38(5): 717-720]. Tissues were rehydrated in PBT for 30 minutes, then labeled for 3.5 hours in 0.2% gold chloride in 0.02 M neutral phosphate buffer with 0.9% sodium chloride. After a water rinse, tissues were post-fixed for 5 minutes in 2.5% sodium thiosulfate, rinsed in running tap water for 30 minutes, and mounted in mowiol. Images were collected using transmitted light on the system outlined in part A of this example. Myelin was labeled a brown-red color. […] Loyez Technique. Adapted from H. C. Cook. 1974. […] London: Butterworths. pp. 161-162. Tissues were rehydrated and permeabilized 30 minutes in PBT, then treated with 4% iron alum overnight at room temperature. After a water wash, tissues were stained overnight in a 10% alcoholic haematoxylin solution with lithium carbonate at room temperature. After two 10-minute water washes, tissues were destained for approximately 20 seconds in 4% iron alum, and washed in water. After a final wash in borax-ferricyanide to colorize the myelin blue-black, tissues were washed in water and mounted in mowiol. Images were scanned as in section B. I. Of this example. […]

myelin [3] = assay: Demyelinated mouse model test: control versus shiverer mouse brain cryosections
Protocol: To illustrate the use of the present dyes for studying myelin diseases such as multiple sclerosis, adrenoleukodystrophy, Guillain-Barre syndrome, and others, Compound 1 was compared against rat anti-myelin basic protein (anti-MBP) primary antibody on control mouse brains versus shiverer mouse brain. […] Brain tissues were cryosectioned at 16 μm and mounted on PLUS slides. Control and shiverer tissues were treated either with anti-MBP primary and Alexa Fluor 488 goat anti-rat secondary or Compound 1. Tissues treated with the antibody were rehydrated and permeabilized in PBT (0.05 M phosphate buffered saline with 0.2% Triton X-100 and 0.2% bovine serum albumin (BSA)) for 20 minutes, then blocked in 5% normal goat serum/3% BSA/PBT for 1 hour. Tissues were then incubated overnight at 4° C. with 5 μg/mL rat anti-MBP (Chemicon, MAB386) in blocking solution. After washing 3×10 minutes in PBT, they were then incubated for 2 hours with 5 μg/mL Alexa Fluor 488 goat anti-rat secondary at room temperature. After further washing 3×10 minutes in PBT, tissues were counterstained with 0.2 μg/ml DAPI, washed 3×5 minutes in PBT, and mounted with ProLong antifade mounting medium (Invitrogen P36930). Tissues that were labeled with Compound 1 were rehydrated and permeabilized as above, then labeled 20 minutes with 500 nM Compound 1 and 0.2 μg/mL DAPI (together) in PBT. Tissues were washed 3×10 minutes PBT, then mounted as above. Images were collected on a Nikon E800 epifluorescence upright microscope using a Princeton MicroMax cooled CCD digital camera, an Omega XF100-2 FITC filter set, MetaMorph acquisition software, and Adobe Photoshop image analysis software. […] Myelin labeling was negative, as expected, for shiverer mice for both anti-MBP and Compound 1, illustrating that the present dyes work as well as anti-MBP for demyelination determination.

myelin [4] = assay: Detection of myelin in combination with antibodies (anti-GFAP) and DAPI on mouse brain cryosection
Protocol: To test whether use of Compound 1 interrupts antibody binding, Compound 1 was used in conjunction with anti-GFAP on mouse brain sections. A 16 μm mouse brain cryosection, cross-section through the rostral mesencephalon, was rehydrated and permeabilized in PBT (0.05 M phosphate buffered saline with 0.2% Triton X-100 and 0.2% BSA) for 20 minutes, the washed for 30 minutes with Image-iT FX Signal Enhancer (Molecular Probes, Inc.) to block non-specific Alexa Fluor dye binding to myelin. After washing in PBT, the section was blocked for 1 hour in 5% normal goat serum/0.2% Triton X-100/3% BSA, then incubated overnight at 4° C. in 5 μg/ml mouse anti-GFAP (glial fibrillary acidic protein) from Molecular Probes (A21282) in blocking buffer. Sections were washed well in PBT, then incubated in Alexa Fluor 680 goat anti-mouse secondary antibody (A21057, Molecular Probes, Inc.) for 2 hours. After washing in PBT, sections were labeled in 500 nM of Compound 1 for 20 minutes with 0.1 μg/ml DAPI. After a final wash in PBT, sections were mounted in Prolong antifade mountant (Molecular Probes, inc.). Images were collected on a Nikon E800 epifluorescence upright microscope using a Princeton MicroMax cooled CCD digital camera, MetaMorph acquisition software, and Adobe Photoshop image analysis software.

## CCCCN(CCCC)c1ccc(C=Cc2cc[n+](CCC[N+](CC)(CC)CC)cc2)cc1 [Compound 1]
Myelin [1]
  disruption of labels / compatibility with NeuroTrace Nissl stain and DAPI: no evidence of disruption of any of the three labels
  label pattern in combination with NeuroTrace Nissl stain and DAPI: tracts in the fornix, fornix superior, capsula interna, and striatum
Myelin [2]; 12 μm mouse brain cryosections
  labeling of myelin (selectivity): selective myelin labeling
Myelin [2]
  myelin label pattern: specific myelin labeling in expected axon bundles and tracts
  non-specific background labeling: some non-specific background labeling was visualized
  single axon labeling: single axon labeling was not seen
  emission wavelength (Em): 594 nm
  excitation wavelength (Ex): 479 nm
Myelin [3]; control mice brain
  staining brightness compared with anti-MBP: twice as bright
Myelin [3]; control mice brain, 16 μm cryosections, 500 nM dye 20 minutes or 5 μg/mL anti-MBP overnight
  myelin labeling in control mice: labeled myelin in control mice
Myelin [3]; general membrane labeling
  background labeling: slight background labeling
Myelin [3]; shiverer (demyelinated) mouse brain, 16 μm cryosections
  myelin labeling in shiverer mice: negative
Myelin [4]; 500 nM 20 minutes with 0.1 μg/ml DAPI after anti-GFAP / Alexa Fluor 680 secondary, rostral mesencephalon cross-section
  label pattern in conjunction with anti-GFAP: labeled axon tracts and bundles
Myelin [4]; 500 nM dye with anti-GFAP antibody labeling
  inhibition of staining pattern: no inhibition of staining pattern by either label

## CCCCN(CCCC)c1ccc(C=CC=CC=Cc2cc[n+](CCC[N+](CC)(CC)CC)cc2)cc1 [Compound 2]
Myelin [1]
  disruption of labels / compatibility with NeuroTrace Nissl stain and DAPI: no evidence of disruption of any of the three labels
  label pattern in combination with NeuroTrace Nissl stain and DAPI: tracts in the fornix, fornix superior, capsula interna, and striatum
Myelin [2]; 12 μm mouse brain cryosections
  labeling of myelin (selectivity): selective myelin labeling
Myelin [2]
  myelin label pattern: specific myelin labeling in expected axon bundles and tracts
  non-specific background labeling: some non-specific background labeling was visualized
  single axon labeling: single axon labeling was not seen
  emission wavelength (Em): 734 nm
  excitation wavelength (Ex): 558 nm

## CCCCN(CCCC)c1ccc(C=CC=CC=Cc2cc[n+](CCC[N+](C)(C)C)cc2)cc1 [Compound 4]
Myelin [1]
  disruption of labels / compatibility with NeuroTrace Nissl stain and DAPI: compatible with NeuroTrace Green Nissl Stain labeling and DAPI labeling
  label pattern in combination with NeuroTrace Nissl stain and DAPI: label pattern comparable to the control dyes
Myelin [2]; 12 μm mouse brain cryosections
  spectral qualities: comparable to Compound 2
  labeling of myelin (selectivity): highly selective labeling of myelin
Myelin [2]; 12 μm mouse brain cryosections, in PBS
  concentration sufficient for labeling with minimal background: 500 nM
